The results in this text go back to ChEMBL document CHEMBL1201862, “PubChem BioAssay data set” (2004).

Holding throughout (assay): DTP human tumour cell line panel, 48 h
Experiment [1] has as its system 786-0.
The subject of experiment [2] is CCRF-CEM.
The subject of experiment [3] is KM12.
The test system of experiment [4] is LOX IMVI.
Experiment [5] concerns MDA-MB-435.
The subject of experiment [6] is NCI-H226.
In experiment [7] the test system is NCI-H522.
Experiment [8] concerns NCI/ADR-RES.
Experiment [9] deals with OVCAR-5.
Experiment [10] deals with SF-539.
Experiment [11] concerns TK-10.
In experiment [12] the test system is UACC-62.
Experiment [13] concerns HL-60.
For experiment [14], the system named is K562.
For experiment [15], the system named is NCI-H460.

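Step 1: Grow cells in 96-well plates. Step 2: Expose to compound for 48 hours at 5 concentrations. Step 3: Interpolate endpoints linearly; if unreached, use highest concentration. Abbreviation: GI50, concentration required for 50% inhibition of growth.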 Calls of active or inactive are those of the source. Cut-off read from the data, not from the text of the source: active = GI50 up to about 1.1 µM and inactive = higher.

`COC(=O)[C@@H](NC(=O)N(CCC#N)CCCN(C(=O)N[C@H](Cc1ccccc1)C(=O)OC)c1ccccc1)C(C)C`: the GI50 (commonly the concentration at which growth is held to half of that of the control) in experiment [1] was > 100 µM (inactive); in experiment [2], 85.1 µM (inactive); in experiment [3], > 100 µM (inactive); in [4] it was 97.3 µM (inactive); in [5], 57.1 µM (inactive); in [6], > 100 µM (inactive). Moreover, the GI50 in experiment [7] is 40.4 µM (inactive); in [8], > 100 µM (inactive); in [9], > 100 µM (inactive); in experiment [10] it was > 100 µM (inactive); in [11], > 100 µM (inactive); in [12], 33.3 µM (inactive).

Regarding `CC1(C)NC(C(=O)c2ccccc2)=[N+]([O-])C1(O)c1ccccc1` (stereo not drawn), the GI50 in experiment [1], in experiment [2], in experiment [13], in [14], in [3] and in experiment [4] was > 100 µM (inactive) throughout. In addition, the GI50 in experiment [5], in [6], in experiment [15], in experiment [8], in experiment [9] and in [10] was > 100 µM (inactive) in each case. The GI50 in experiment [11] and in experiment [12] was > 100 µM (inactive) each time.

As to `COc1cccc(-c2cccc(SC)n2)n1`, the GI50 in [1] is 28.8 µM (inactive); in experiment [2], 18.2 µM (inactive); in [13] it was 12.1 µM (inactive); in experiment [14], 26.2 µM (inactive); in [3], 34 µM (inactive); in experiment [4] it was 33.1 µM (inactive). Further, the GI50 was 26.4 µM (inactive) in experiment [5]; 15.8 µM (inactive) in experiment [6]; 29 µM (inactive) in [15]; 28.4 µM (inactive) in experiment [8]; 29.2 µM (inactive) in [9]; 32.1 µM (inactive) in experiment [10]. The GI50 in experiment [11] is 39.2 µM (inactive); in [12] it was 36.2 µM (inactive).

On to `Cc1ccc(-c2cnc(NC3OC(COC(=O)c4ccccc4)C(OC(=O)c4ccccc4)C(OC(=O)c4ccccc4)C3OC(=O)c3ccccc3)s2)cc1` (stereo not drawn), for which the GI50 in [1] was 44.6 µM (inactive); in experiment [4] it was > 100 µM (inactive); in [5] it was > 100 µM (inactive); in experiment [6], > 100 µM (inactive); in experiment [15], > 100 µM (inactive); in experiment [7] it was > 100 µM (inactive). In addition, the GI50 is > 100 µM (inactive) in experiment [8], 61.7 µM (inactive) in experiment [9], > 100 µM (inactive) in experiment [11] and 94.6 µM (inactive) in [12].

Consider `C/C(=N\NC(=S)NCCCCNC(=S)N/N=C(\C)c1ccccn1)c1ccccc1`, for which the GI50 in experiment [1] was 6.18 µM (inactive); in [2], 0.391 µM (active); in experiment [14], 2.25 µM (inactive); in [3], 1.77 µM (inactive); in experiment [4] it was 0.845 µM (active); in [5] it was > 100 µM (inactive). Also, the concentration for 50% growth inhibition (GI50) is 0.481 µM (active) in [15]; 1.15 µM (inactive) in experiment [7]; 0.914 µM (active) in experiment [8]; 1.98 µM (inactive) in experiment [9]; 1.11 µM (active) in [10]; 0.839 µM (active) in experiment [11]. Moreover, the GI50 in experiment [12] was 1.12 µM (active).

`NC(=O)C(NC=O)c1ccccc1` (stereo not drawn): the GI50 in experiment [1], in experiment [2], in experiment [13], in experiment [14], in experiment [3] and in experiment [4] was > 100 µM (inactive) throughout. The GI50 in [5], in [15], in experiment [7], in experiment [8], in experiment [10] and in experiment [11] was > 100 µM (inactive) each time. Also, the GI50 in experiment [12] is > 100 µM (inactive).

As to `O=C(n1c(=O)n(-c2ccc(Cl)cc2)c(=O)n1C(=O)C(Cl)(Cl)Cl)C(Cl)(Cl)Cl`, the GI50 in experiment [1] was > 100 µM (inactive); in experiment [2], > 100 µM (inactive); in experiment [13], > 100 µM (inactive); in [14], 21.4 µM (inactive); in experiment [3], 82.8 µM (inactive); in experiment [4], > 100 µM (inactive). In addition, the GI50 was 31.6 µM (inactive) in [5]; > 100 µM (inactive) in experiment [15]; > 100 µM (inactive) in experiment [7]; 43.5 µM (inactive) in experiment [8]; > 10 µM (inactive) in experiment [9]; > 100 µM (inactive) in experiment [10]. The GI50 in experiment [11] and in [12] was > 100 µM (inactive) each time.

As for `CC(C)(C)OC(=O)N/N=C(/N)Cc1ccc(Cl)cc1`, the GI50 in [1] was > 100 µM (inactive); in [2], > 100 µM (inactive); in experiment [14] it was 37.2 µM (inactive); in experiment [3], > 100 µM (inactive); in [4], > 100 µM (inactive); in experiment [5], > 100 µM (inactive). Besides, the GI50 in experiment [6], in experiment [15], in experiment [7], in experiment [8], in [9] and in [11] was > 100 µM (inactive) each time. Moreover, the GI50 in experiment [12] was > 100 µM (inactive).

Turning to `N=C1N(S(=O)(=O)c2ccccc2)[C@@H](Cc2ccccc2)[C@H](c2ccccc2)C1(c1ccccc1)c1ccccc1`, the GI50 is > 100 µM (inactive) in [1]; 27.2 µM (inactive) in [2]; 4.12 µM (inactive) in experiment [13]; 71.1 µM (inactive) in experiment [14]; 31.4 µM (inactive) in experiment [3]; > 100 µM (inactive) in experiment [4]. Moreover, the GI50 is > 100 µM (inactive) in experiment [5]; 36.7 µM (inactive) in [15]; 39.5 µM (inactive) in experiment [7]; 70.1 µM (inactive) in experiment [8]; > 100 µM (inactive) in experiment [9]; > 100 µM (inactive) in [10]. The GI50 in experiment [11] and in experiment [12] was > 100 µM (inactive) throughout.

Turning to `COc1ccccc1NC(=S)NNC(=O)c1cc(-c2ccccc2)nc2ccccc12`, the GI50 in experiment [1] is 13.2 µM (inactive); in [2], 2.08 µM (inactive); in [14], 6.97 µM (inactive); in [3], 7.01 µM (inactive); in experiment [5], 3.18 µM (inactive); in [6] it was 17.3 µM (inactive). In addition, the GI50 in experiment [15] was 13.2 µM (inactive); in [7] it was 12.9 µM (inactive); in [8] it was 12.8 µM (inactive); in experiment [9] it was 16.4 µM (inactive); in experiment [10], 11.5 µM (inactive); in [11], 26.5 µM (inactive). In addition, the GI50 in experiment [12] is 5.86 µM (inactive).

For the molecule `CC(=O)O[C@H]1C(=O)N(c2cc3c4ccccc4ccc3c3ccccc23)[C@@H]1c1ccccc1`, the GI50 in experiment [1] was 3.79 µM (inactive); in experiment [2], 3.76 µM (inactive); in experiment [14], 4.8 µM (inactive); in experiment [3], 2.9 µM (inactive); in experiment [4], 4.34 µM (inactive); in experiment [5] it was 1.61 µM (inactive). Besides, the GI50 in experiment [6] was 3.33 µM (inactive); in experiment [15], 4.31 µM (inactive); in [8] it was 4.38 µM (inactive); in experiment [9], 15.7 µM (inactive); in experiment [10] it was 3.89 µM (inactive); in experiment [11], 12.8 µM (inactive). Also, the GI50 in [12] is 3.15 µM (inactive).

Turning to `C=C1[C@H](OCC(C)C)[C@@H](OCC(C)C)[C@@H](O)C(C)(C)/C=C/[C@H](C)C(=O)[C@@]2(O)C[C@H](C)[C@H](O)[C@@H]2[C@H]1OCC(C)C`, the GI50 in [1] is 4.49 µM (inactive); in [14], 0.538 µM (active); in experiment [3] it was > 7.5 µM (inactive); in experiment [4] it was > 7.5 µM (inactive); in experiment [5] it was 3.01 µM (inactive); in experiment [15], 0.555 µM (active). Moreover, the GI50 was > 7.5 µM (inactive) in experiment [7]; > 7.5 µM (inactive) in experiment [8]; > 7.5 µM (inactive) in experiment [9]; 2.83 µM (inactive) in experiment [10]; 5.78 µM (inactive) in experiment [11]; 7.19 µM (inactive) in experiment [12].

For `CSC12c3cc(C)n(-c4ccccc4)c3CC(C)(C)CN1C(=O)C2Oc1ccccc1` (stereo not drawn), the GI50 in experiment [1] is 83.8 µM (inactive); in experiment [2], 16.6 µM (inactive); in experiment [14], 32.1 µM (inactive); in experiment [3], > 100 µM (inactive); in experiment [4], 17.5 µM (inactive); in experiment [5], > 100 µM (inactive). Besides, the GI50 is 24.9 µM (inactive) in [6]; 29.1 µM (inactive) in experiment [15]; 62.4 µM (inactive) in experiment [8]; > 100 µM (inactive) in experiment [9]; > 100 µM (inactive) in experiment [10]; 29.3 µM (inactive) in experiment [12].

Regarding `CC1(C)C(=O)N(O)C(C)(C)N1N=O`, the GI50 in experiment [1], in experiment [2], in [13], in [14], in experiment [3] and in experiment [5] was > 10 µM (inactive) each time. Besides, the GI50 in experiment [6], in experiment [15], in [7], in [8], in [9] and in experiment [11] was > 10 µM (inactive) in each case.

For `COC(=O)[C@@H]1[C@@H](c2cccc(Cl)c2)[C@H](C(=O)OC)C2(C[C@@]1(C)O)NCCS2` (stereo partly drawn), the GI50 in [1] is 74.6 µM (inactive); in [2], 0.684 µM (active); in experiment [14], 25.6 µM (inactive); in experiment [3], 48.8 µM (inactive); in [4], 38.2 µM (inactive); in [5], 52.5 µM (inactive). Also, the GI50 in [6] was > 100 µM (inactive); in [15] it was 48.4 µM (inactive); in experiment [7], 24.2 µM (inactive); in [8] it was 91.6 µM (inactive); in experiment [9] it was > 100 µM (inactive); in [10], > 100 µM (inactive). For the same molecule, the figures for the GI50 in experiment [11] and in experiment [12] were > 100 µM (inactive) and 73.5 µM (inactive), respectively.
